These results are taken from US20250328351A1, “CARBONIC ANHYDRASE INHIBITORS AND ANTIBIOTICS AGAINST MULTIDRUG RESISTANT BACTERIA” (Purdue Research Foundation, priority 2018, published 2025).

In brackets after ≈: the same amount, converted by molar mass. Like-named read-outs stand apart in the source and are kept apart here.

Data set [1] concerns Enterococcus faecalis S613 HM-334. Nature of the data set: MIC, broth microdilution (CLSI). It counts as cell-based. The procedure: (§1) The minimum inhibitory concentrations (MICs) of the compounds and control drugs were determined using the broth microdilution method, according to guidelines outlined by the Clinical and Laboratory Standards Institute (CLSI). Enterococci strains were grown aerobically overnight on tryptone soya agar plates at 37° C., afterwards a bacterial solution equivalent to 0.5 McFarland standard was prepared and diluted in tryptone soy broth (TSB) to achieve a bacterial concentration of about 5×10^5 CFU/mL and seeded in 96-well well plates. Compounds and control drugs were added in the first row of the 96-well plates and serially diluted along the plates. Plates were then incubated aerobically at 37° C. for 18-20 hours. MICs reported in Table 1 are the minimum concentration of the compounds/control drugs that could inhibit completely the visual growth of the bacteria.
(§2) The minimum inhibitory concentrations (MICs) of CAIs were tested against clinical isolates of vancomycin sensitive and vancomycin resistant Enterococci strains as per the guidelines provided by the Clinical and Laboratory Standards Institute (CLSI). The selected strains of Enterococci were streaked on Tryptic Soy Agar (TSA) plates and let grow for 24 hours at 37° C. Afterwards, a bacterial solution equivalent to 0.5 McFarland standard was prepared and diluted in tryptone soy broth (TSB) or brain heart infusion broth (BHIB) to achieve a bacterial concentration of about 5×10^5 CFU/mL and seeded in 96-well well plates. Compounds and control drugs were added in the first row of the 96-well plates and serially diluted along the plates. Plates were then incubated aerobically at 37° C. for 18-20 hours. MICs reported in Table 5 are the minimum concentration of the compounds/control drugs that could inhibit completely the visual growth of the bacteria.
The minimum inhibitory concentrations (MICs) of CAIs were tested against vancomycin resistant Enterococcus faecalis—S613 HM 334 strain as per the guidelines provided by the Clinical and Laboratory Standards Institute (CLSI). The selected strain was streaked on Tryptic Soy Agar (TSA) plate and let grow for 24 hours at 37° C. […] Compounds and control drugs were added in the first row of the 96-well plates and serially diluted along the plates. Plates were then incubated aerobically at 37° C. for 18-20 hours. MICs reported in table (6) are the minimum concentration of the compounds/control drugs that could inhibit completely the visual growth of the bacteria.

For data set [2], the system named is Bifidobacterium breve JCP7499 HM 1120. The data set is described as follows: MIC against human normal gut microbiota. It counts as cell-based. Conditions: JCP7499HM1120, Table 3, BHIS broth, anaerobic, 48 hours, read-out: MIC. The procedure:
(§3) Three different bacterial strains were used in this experiment; Bifidobacterium (anaerobic Gram positive bacteria), Bacteroides (anaerobic Gram negative bacteria) and Lactobacillus (microaerophilic Gram positive bacteria). Bifidobacterium and Bacteroides were first grown for 48 hours at 37° C., anaerobically using brain heart infusion supplemented (BHIS) agar (Brain heart infusion agar supplemented with hemin, vitamin K and L-cysteine). Lactobacillus was cultivated on MRS agar and incubated in presence of 5% CO2 for 48 hours at 37° C. Each bacterium was suspended in phosphate buffered saline (PBS) to produce a suspension with optical density that matches 0.5 McFarland standard and diluted in brain heart infusion supplemented broth (for Bifidobacterium and Bacteroides) or in MRS broth (for Lactobacillus) to achieve bacterial concentration of approximately 5×10^5 CFU/ml. Bacteria were then seeded in 96-well plates containing serial dilutions of the compounds and incubated as mentioned previously for 48 hours.

The test system of data set [3] is Bacteroides fragilis CL07T00C01 HM-709. The data set is described as follows: MIC against human normal gut microbiota. It counts as cell-based. As to conditions: Table 3, BHIS broth, anaerobic, 48 hours, read-out: MIC. As to the method: as §3
Data set [4] has as its system Bacteroides dorei CL02T12C06 HM-719. Nature of the data set: MIC against human normal gut microbiota. Type of data set: cell-based. Conditions: Phocaeicola dorei; Table 3; BHIS broth, anaerobic, 48 hours; read-out: MIC. As to the method: as §3
The next data set relates to VERO cells. Nature of the data set: In vitro cytotoxicity, MTS assay. Type of data set: cell-based, monkey. As to conditions: concentration up to 128 μg/mL; two hours incubation. As to the method:
Toxicity assessment: Compounds AS005H, AS005J, AS004B, AS005K, AS005A and 005D were assayed (at concentrations of 64 and 128 μg/mL) against a fibroblast-like monkey kidney cell line (VERO cell) to determine the potential toxic effect in vitro. Briefly, cells were cultured in Minimum Essential Medium (MEM) supplemented with 10% fetal bovine serum (FBS), 1 mM sodium pyruvate, and penicillin-streptomycin at 37° C. with CO2 (5%). Control cells received DMSO alone at a concentration equal to that in drug-treated cell samples. The cells were incubated with the compounds (in triplicate) in a 96-well plate at 37° C. with CO2 (5%) for two hours. The assay reagent MTS 3-(4,5-dimethylthiazol-2-yl)-5-(3-carboxymethoxyphenyl)-2-(4-sulfophenyl)-2H-tetrazolium) (Promega, Madison, WI, USA) was subsequently added and the plate was incubated for four hours. Absorbance readings (at OD490) were taken using a kinetic microplate reader (Molecular Devices, Sunnyvale, CA, USA). The quantity of viable cells after treatment with each compound was expressed as a percentage of the viability of DMSO-treated control cells (average of triplicate wells±standard deviation). The toxicity data was analyzed via a two-way ANOVA, with post hoc Dunnet's multiple comparisons test (P<0.05), utilizing GraphPad Prism 6.0 (GraphPad Software, La Jolla, CA).
Percent viable mammalian cells (measured as average absorbance ratio (test agent relative to DMSO) for cytotoxicity analysis of compounds AS005H, AS005J, AS004B, AS005K, AS005A and 005D (tested in triplicates) at 64 and 128 μg/mL against VERO cells using the MTS 3-(4,5-dimethylthiazol-2-yl)-5-(3-carboxymethoxyphenyl)-2-(4-sulfophenyl)-2H-tetrazolium) assay. Dimethyl sulfoxide (DMSO) was used as a negative control to determine a baseline measurement for the cytotoxic impact of each compound. The absorbance values represent an average of a minimum of three samples analyzed for each compound. Error bars represent standard deviation values for the absorbance values.

Data set [5] relates to Enterococcus faecium Patient #2-1 - NR-31909. Nature of the data set: MIC, broth microdilution (CLSI). It counts as cell-based. Conditions: Table 5. The procedure: as §1, §2
Data set [6] concerns Enterococcus fecalis Strain SF 24397 NR31970. The data set is described as follows: MIC, broth microdilution (CLSI). It counts as cell-based. As to conditions: Table 5. As to the method:
as §1, §2

In data set [7] the test system is Enterococcus faecium E417 - HM-965. Nature of the data set: MIC, broth microdilution (CLSI). Type of data set: cell-based. As to the method: as §1, §2
The mark [8] stands for this setting: Enterococcus faecalis, S613HM334, Table 7, TSB, read-out: MIC.
The mark [9] stands for this setting: Enterococcus faecalis, S613HM334, Table 1, TSB, read-out: MIC.
[10] abbreviates: Enterococcus faecalis, S613HM334, Table 5, BHIB, read-out: MIC.
Setting [11] is: Enterococcus faecalis, S613HM334, Table 5, TSB, read-out: MIC.
Setting [12] is: Enterococcus faecalis, S613HM334, Table 6, TSB in presence of 4% human serum albumin, read-out: MIC.

As to `NS(=O)(=O)c1nnc(NC(=O)C2CCC2)s1` [CAI0018, N-(5-Sulfamoyl-1,3,4-thiadiazol-2-yl)cyclobutanecarboxamide], the MIC in data set [1] (setting [8]) is 1 µg/mL (≈ 3.81 µM).

As to `CC(=O)Nc1nnc(S(C)(=O)=O)s1` [CAI0025, N-(5-(Methylsulfonyl)-1,3,4-thiadiazol-2-yl)acetamide], the MIC in data set [1] (setting [8]) was greater than 128 µg/mL.

Regarding `CC(C)CC(=O)Nc1nnc(S(N)(=O)=O)s1` [CAI0026, 3-Methyl-N-(5-sulfamoyl-1,3,4-thiadiazol-2-yl)butanamide], the MIC in data set [1] (setting [8]) was determined as 0.25 µg/mL (≈ 0.946 µM).

On to `NS(=O)(=O)c1nnc(NC(=O)C2CCCCC2)s1` [CAI0022, N-(5-Sulfamoyl-1,3,4-thiadiazol-2-yl)cyclohexanecarboxamide], for which, in data set [1] (setting [8]), the MIC amounted to 0.25 µg/mL (≈ 0.861 µM).

In the case of `NS(=O)(=O)c1nnc(NC(=O)c2ccccc2)s1` [CAI0012, N-(5-Sulfamoyl-1,3,4-thiadiazol-2-yl)benzamide], the MIC was greater than 64 µg/mL in data set [2]; greater than 64 µg/mL in data set [3]; greater than 64 µg/mL in data set [4]; 4 µg/mL (≈ 14.1 µM) in data set [1] (setting [9]); 4 µg/mL (≈ 14.1 µM) in data set [1] (setting [8]).

As to `NS(=O)(=O)c1nnc(NC(=O)CC2CCCCC2)s1` [CAI0029, 2-Cyclohexyl-N-(5-sulfamoyl-1,3,4-thiadiazol-2-yl)acetamide], the MIC in data set [1] (setting [8]) worked out at 0.015 µg/mL (≈ 0.0493 µM).

Take `NS(=O)(=O)c1nnc(NC(=O)CC2CCCC2)s1` [CAI0021, 2-Cyclopentyl-N-(5-sulfamoyl-1,3,4-thiadiazol-2-yl)acetamide]: the MIC in data set [1] (setting [8]) amounted to 0.03 µg/mL (≈ 0.103 µM).

Take `NS(=O)(=O)c1nnc(NC(=O)C2CCCC2)s1` [CAI0023, N-(5-Sulfamoyl-1,3,4-thiadiazol-2-yl)cyclopentanecarboxamide]: the MIC in data set [1] (setting [8]) was determined as 0.5 µg/mL (≈ 1.81 µM).

In the case of `CCOc1ccc2nc(S(N)(=O)=O)sc2c1` [Ethoxzolamide], the figures for the MIC in data set [1] (setting [10]), in data set [1] (setting [11]) and in data set [1] (setting [12]) were greater than 128 µg/mL, 1 µg/mL (≈ 3.87 µM) and greater than 256 µg/mL, respectively.

For `CCC(=O)Nc1nnc(S(N)(=O)=O)s1` [CAI0009, N-(5-Sulfamoyl-1,3,4-thiadiazol-2-yl)propionamide], the MIC was greater than 64 µg/mL in data set [2]; greater than 64 µg/mL in data set [3]; greater than 64 µg/mL in data set [4]; 2 µg/mL (≈ 8.46 µM) in data set [1] (setting [9]); 2 µg/mL (≈ 8.46 µM) in data set [1] (setting [8]).

`NS(=O)(=O)c1nnc(NC(=O)C2CC2)s1` [CAI0020, N-(5-Sulfamoyl-1,3,4-thiadiazol-2-yl)cyclopropanecarboxamide]: in data set [1] (setting [8]), the MIC worked out at 0.007 µg/mL (≈ 0.0282 µM).

`CC(=O)/N=c1/sc(S(N)(=O)=O)nn1C` [Methazolamide]: the MIC in data set [1] (setting [10]) was greater than 128 µg/mL; in data set [1] (setting [11]), 1 µg/mL (≈ 4.23 µM); in data set [1] (setting [12]) it was greater than 256 µg/mL.

Consider `CC(C)(C)CC(=O)Nc1nnc(S(N)(=O)=O)s1` [CAI0028, 3,3-Dimethyl-N-(5-sulfamoyl-1,3,4-thiadiazol-2-yl)butanamide], for which the MIC in data set [1] (setting [8]) stood at 0.03 µg/mL (≈ 0.108 µM).

For `CCCC(=O)Nc1nnc(S(N)(=O)=O)s1` [CAI0013, N-(5-Sulfamoyl-1,3,4-thiadiazol-2-yl)butyramide], the “toxicity to VERO cells (percent viable cells, MTS)” value in the data set with VERO cells is given as “non-toxic”. In addition, the MIC in data set [2], in data set [3] and in data set [4] was greater than 64 µg/mL throughout.

As to `CCN[C@H]1CN(CCCOC)S(=O)(=O)c2sc(S(N)(=O)=O)cc21` [Brinzolamide], the MIC in data set [1] (setting [10]) is greater than 128 µg/mL; in data set [1] (setting [11]) it was 2 µg/mL (≈ 5.21 µM); in data set [1] (setting [12]), greater than 256 µg/mL.

Turning to `CCCCCCCCCC(=O)N[C@@H](Cc1c[nH]c2ccccc12)C(=O)N[C@H](CC(N)=O)C(=O)N[C@@H](CC(=O)O)C(=O)N[C@@H]1C(=O)NCC(=O)N[C@@H](CCCN)C(=O)N[C@@H](CC(=O)O)C(=O)N[C@H](C)C(=O)N[C@@H](CC(=O)O)C(=O)NCC(=O)N[C@H](CO)C(=O)N[C@@H]([C@H](C)CC(=O)O)C(=O)N[C@@H](CC(=O)c2ccccc2N)C(=O)O[C@@H]1C` [Daptomycin], the MIC in data set [1] (setting [10]) amounted to 2 µg/mL (≈ 1.23 µM); in data set [1] (setting [11]), 1 µg/mL (≈ 0.617 µM); in data set [1] (setting [12]), 16 µg/mL; in data set [5] (Enterococcus faecium, BHIB, read-out: MIC), 16 µg/mL (≈ 9.87 µM); in data set [5] (Enterococcus faecium, TSB, read-out: MIC) it was 8 µg/mL (≈ 4.94 µM); in data set [6] (Enterococcus, BHIB, read-out: MIC), 2 µg/mL (≈ 1.23 µM). In addition, the minimum inhibitory concentration (MIC) in data set [6] (Enterococcus, TSB, read-out: MIC) was 1 µg/mL (≈ 0.617 µM); in data set [7] (Enterococcus faecium, E417HM965, Table 5, BHIB, read-out: MIC) it was 16 µg/mL (≈ 9.87 µM); in data set [7] (Enterococcus faecium, E417HM965, Table 5, TSB, read-out: MIC), 4 µg/mL (≈ 2.47 µM).

For the molecule `NS(=O)(=O)c1cc(Cl)c(Cl)c(S(N)(=O)=O)c1` [Dichlophenamide, reference compound], the MIC is 16 µg/mL (≈ 52.4 µM) in data set [1] (Table 5, TSB); 2 µg/mL (≈ 6.55 µM) in data set [5] (TSB); 16 µg/mL (≈ 52.4 µM) in data set [6] (TSB); 16 µg/mL (≈ 52.4 µM) in data set [7] (Table 5, BHIB); 1 µg/mL (≈ 3.28 µM) in data set [7] (Table 5, TSB).

With `CC(=O)NC[C@H]1CN(c2ccc(N3CCOCC3)c(F)c2)C(=O)O1` [Linezolid], the MIC in data set [2] was no more than 0.5 µg/mL; in data set [3], 2 µg/mL (≈ 5.93 µM); in data set [4], 1 µg/mL (≈ 2.96 µM); in data set [1] (setting [9]), 1 µg/mL (≈ 2.96 µM); in data set [1] (setting [10]) it was 1 µg/mL (≈ 2.96 µM); in data set [1] (setting [11]) it was 1 µg/mL (≈ 2.96 µM). In addition, the MIC in data set [1] (setting [8]) came to 1 µg/mL (≈ 2.96 µM).

As to `CCCCCCC(=O)Nc1nnc(S(N)(=O)=O)s1` [CAI0027, N-(5-Sulfamoyl-1,3,4-thiadiazol-2-yl)heptanamide], in data set [1] (setting [8]), the MIC worked out at 0.007 µg/mL (≈ 0.0239 µM).
